These results are taken from patent publication US12611492B2, “Local drug delivery devices and methods for treating cancer” (Massachusetts Institute of Technology, priority 2013, dated 2026).

The subject of this data set is pancreatic xenografts. The note with it: NOD/SCID/γc, mouse, in vivo, iv. The source says: To quantify intratumoral drug distribution, serial sections of the tumor perpendicular to the PED were imaged by quantitative confocal microscopy. […] Tissue penetration within the tumor was quantified by line scans starting from the entry site for paclitaxel (PED—tumor/device interface; IV—vessels).

With `CC(=O)O[C@H]1C(=O)[C@@]2(C)[C@H]([C@H](OC(=O)c3ccccc3)[C@]3(O)C[C@H](OC(=O)[C@H](O)[C@@H](NC(=O)c4ccccc4)c4ccccc4)C(C)=C1C3(C)C)[C@]1(OC(C)=O)CO[C@@H]1C[C@@H]2O` [paclitaxel], the “paclitaxel presence radius around the vessels” value is at most 10 micron.
